≈ marks a conversion by molar mass, not a printed value. Like-named read-outs stand apart in the source and are kept apart here.
Key:
[1] = cited from earlier work
[2] = Thermal ageing at 60° C.: biocide remaining; conditions: Thermal Ageing 60° C.
Procedure: (§1) The loaded biocides, together with the stock solutions, were spread on petri dishes and either placed in an incubator at 60° C. or exposed to U.V. irradiation in a Microscal unit (Miscoscal Limited, London) fitted with a 500 W high pressure mercury/tungsten lamp (wavelength>300 nm) operating at temperature 50° C. and a relative humidity in the region of 50%. […] Samples were withdrawn from the petri dishes undergoing thermal treatment and exposure to U.V. irradiation on a regular basis over a period in the region of 50 days. The amount of biocide remaining in each withdrawn sample was determined at the time of withdrawal using second derivative U.V.-visible Spectroscopy. The amount of biocide remaining in the stock solutions was determined by Gas Chromatography Mass Spectrometry. Relative peak heights corresponding to the residual parts of OIT, CIT and MIT were used to determine the concentrations of biocide in each sample.

[3] = U.V. irradiation: biocide remaining
Procedure: as §1

[4] = tested on: Cladosporium cladosporioides; experiment: Surface growth on painted discs after a further 14 days incubation; type: cell-based; conditions: biocide 300 ppm; for Zone of Inhibition After Leaching (surface of paint discs examined for growth): after water leaching
Procedure: To further distinguish performance the inoculated petri dishes containing the painted discs were incubated for a further 14 days so as to examine the extent of encroachment of the fungi into the surface of the paint film. The dishes were removed from the incubator and the surface of the paint discs examined for growth.

[5] = tested on: Cladosporium cladosporioides; experiment: Water leaching of paint discs: zone of inhibition before and after 24 hours leach; type: cell-based; conditions: acrylic high build paint; for Zone of Inhibition After Leaching: 24 hours water leach
Procedure: The method allows an assessment of the level of protection afforded by incorporating a biocide into a paint formulation. Filter discs (Whatman International Limited, Maidstone, Kent), Type 54, hardened 42.5 mm diameter were brush painted on one side of the disc with the test paints (24 hours between coats, 3 replicates per paint) to give an average loading of 0.05 g dried paint. The painted discs were cured at 60° C. for 2 days. One set of discs is then washed with a large volume of distilled water (20 liters) under controlled flow for 24 hours at ambient temperatures.
A freeze dried ampoule of Cladosporium cladosporioides (strain no. FS33 ex. Paint Research Association, Teddington, UK) was revived on potato dextrose agar (Oxoid Limited, Basingstoke, UK). A spore innoculum was prepared from the resultant sporing culture (5-7 days growth at 25° C.) by adding 5 ml of sterile distilled water to the surface of the culture on the agar and gently rubbing the surface with a sterile loop to dislodge the spores' mycelium. The resultant suspension was filtered through sterile wool and the filtrate used to seed molten (45° C.) potato dextrose agar prior to pouring into sterile Petri dishes.
Each painted disc was placed on the surface of the seeded agar plate, and the plates placed in a fridge (6-8° C.) for 24 hours to allow diffusion of the biocide. After this period, they were transferred to an incubator at 25° C. for five days. The diameter of the disc, plus any zone of inhibition (no fungal growth) around the discs was measured. An average of the three replicates is taken as a data point.
The biocidal efficiency of the two carriers (SD 2209 and SD 1866) loaded, at 30% by weight, with OIT and DCOIT in the acrylic high build formulation was compared before, and after, a 24 hours leach using procedure (ix) described hereinbefore. The paints containing the biocide carrying particles and those where the biocide was incorporated as the free biocide where used in the example.

[6] = tested on: standard mixed inoculum of BS 3900: Part G6: 1989 with Alternaria altarnata; experiment: Prolonged protection on paint panels (BS 3900: Part G6: 1989); type: cell-based; conditions: weathered panels; for Fungal growth rating % Cover D28: Day 28; for Fungal growth rating % Cover D84: Day 84
Procedure: Candidate carrier materials dispersed in water borne acrylic emulsion paint were subjected to the procedure of BS 3900: Part G6: 1989 to assess their long term fungicidal efficiency when compared with the biocide added directly to the paint.
Masterboard panels (150 mm×150 mm) were brush coated on one side with the test paints (2 coats, 24 hours between coats) and cured at 60° C. for two days. The coated panels were then weathered in a QUV apparatus (The Q-Panel Co. Bolton, UK) under the following conditions: 125±5 hours exposure to UVA (340 nm) at 40° C. with 1 hour water spray at approximately 24 hour intervals (5 in total). During the water spray the temperature cools to about 20° C.
After weathering the panels were cut into two equal samples and subjected to the procedure described in BS 3900: Part G6:1989. The control paint was the test paint without biocide. Alternaria altarnata was included in the standard mixed inoculum of BS 3900: Part G6: 1989.
Visual examination of the panels was carried out after 28, 36 and 84 days. In accordance with the standard procedure, the percentage cover of each panel by fungal growth was assessed.
Following on from the observations of Example 4, the two carriers SD 2209 and SD 1866 loaded, at 30% by weight, with OIT and DCOIT were incorporated into the paint formulation specified in Example 4 and subjected to BS 3900: Part G6 as described in procedure (x) hereinbefore to assess their long term film fungicidal efficiency in comparison with OIT and DCOIT added directly to the paint.
Masterboard panels (150 mm×150 mm) were brush coated on one side with the test paints (2 coats, 24 hours between coats) and cured at 60° C. for two days. The coated panels were then weathered in a QUV apparatus as described hereinbefore in procedure (x). After weathering the panels were cut into two equal samples and subjected to the procedure described in BS 3900: Part G6: 1989. The panels were exposed for 28, 36, and 84 days, in accordance with the standard procedure, and the percentage cover of each panel by fungal growth was assessed at these stages.

[7] = tested on: standard mixed inoculum of BS 3900: Part G6: 1989 with Alternaria altarnata; experiment: as above; type: cell-based; conditions: weathered panels
[8] = 50.98 %
Procedure: as §1

[9] = tested on: Aureobasidium pullulans; experiment: Minimum Inhibition Concentration (MIC); type: cell-based
Procedure: The retention factor, R, referred to above is determined from the equation R=A/P, where A represents the percentage active ingredient by weight remaining in the pore system after contacting with water according to the conditions defined herein and P represents the potency (Minimum Inhibition Concentration in mg of active ingredient per liter) of the biocide determined with respect to the reference microorganism Aureobasidium pullulans using the procedure defined herein.
The usefulness of the inorganic carrier particle will depend on the particular biocide being used, its effectiveness at various activity levels and the quantity of biocide (active ingredient) adsorbed and retained in the pore system. […]
The minimum inhibition concentration (MIC) is a measure of the potency of a biocide and comprises the minimum concentration (ppm) of a biocide active or formulation (normally quoted in terms of the active ingredient) determined experimentally in vitro to prevent the growth of a pure culture of a reference microorganism. […]
A standardised culture of the microbe under lest is prepared. […] The concentration at which no growth is detected is the minimum inhibition concentration (MIC) for that particlar biocide and reference organism. […]

[10] = 50.98 %; remark: listed apart in the source
Procedure: as §1

Row | SMILES | water solubility relative to OIT, in words [1] | amount of original biocide remaining (MIT, CIT, MIT/CIT) ([2]; 0 days) | amount of original biocide remaining (MIT, CIT, MIT/CIT) ([2]; 7 days) | amount of original biocide remaining (MIT, CIT, MIT/CIT) ([2]; 12 days) | amount of original biocide remaining (MIT, CIT, MIT/CIT) ([2]; 18 days) | amount of original biocide remaining (MIT, CIT, MIT/CIT) ([3]; 0 days) | amount of original biocide remaining (MIT, CIT, MIT/CIT) ([3]; 7 days) | amount of original biocide remaining (MIT, CIT, MIT/CIT) ([3]; 25 days) | amount of original biocide remaining (MIT, CIT, MIT/CIT) ([3]; 32 days) | amount of original biocide remaining (MIT, CIT, MIT/CIT) ([3]; 39 days) | Zone of Inhibition Before Leaching (surface of paint discs examined for growth) [4] | Zone of Inhibition After Leaching (surface of paint discs examined for growth) [4] | Zone of Inhibition Before Leaching ([5]; biocide 300 ppm) | Zone of Inhibition After Leaching ([5]; biocide 300 ppm) | Zone of Inhibition Before Leaching ([5]; biocide 1,200 ppm) | Zone of Inhibition After Leaching ([5]; biocide 1,200 ppm) | Zone of Inhibition Before Leaching ([5]; biocide 4,000 ppm) | Zone of Inhibition After Leaching ([5]; biocide 4,000 ppm) | Fungal growth rating % Cover D28 ([6]; biocide 300 ppm) | Fungal growth rating % Cover D84 ([6]; biocide 300 ppm) | also measured
1 | Cn1sccc1=O [MIT, 2-Methyl-4-isothiazolin-3-one] | more water soluble than OIT | 100 | 95 | 90 | 80 | 100 | 78 | 69 | 62 | 50 |  |  |  |  |  |  |  |  |  |  | amount of original biocide remaining (MIT, CIT, MIT/CIT) ([2]; 40 days): 50; amount of original biocide remaining (MIT, CIT, MIT/CIT) ([3]; 55 days): 24
2 | CCCCCCCCn1sc(Cl)c(Cl)c1=O [DCOIT, 4,5-Dichloro-2-Octyl-4-Isothiazolin-3-one] |  |  |  |  |  |  |  |  |  |  | None | Growth | 22 mm | OVERGROWTH | 25 mm | 1 mm | 38 mm | 2 mm | 23 % cover | 85 % cover | Fungal growth rating % Cover D28 ([6]; biocide 1,200 ppm): 8 % cover; Fungal growth rating % Cover D84 ([6]; biocide 1,200 ppm): 68 % cover; Fungal growth rating % Cover D28 ([6]; biocide 4,000 ppm): 0 % cover; Fungal growth rating % Cover D84 ([6]; biocide 4,000 ppm): 5 % cover; Fungal growth rating % Cover D56 ([7]; biocide 300 ppm): 85 % cover; Fungal growth rating % Cover D56 ([7]; biocide 1,200 ppm): 55 % cover; Fungal growth rating % Cover D56 ([7]; biocide 4,000 ppm): 0 % cover
3 | Cn1sc(Cl)cc1=O [CIT, 5-Chloro-2-Methyl-4-isothiazolin-3-one] | more water soluble than OIT | 100 | 80 | 40 | 30 | 100 | 0 | 0 | 0 | 0 |  |  |  |  |  |  |  |  |  |  | amount of original biocide remaining (MIT, CIT, MIT/CIT) ([2]; 26 days): 0
4 | CCCCCCCCn1sccc1=O [OIT, 2-Octyl-4-Isothiazolin-3-one] |  |  |  |  |  |  |  |  |  |  | None | Growth | 32 mm | OVERGROWTH | >42 mm | 1 mm | >42 mm | 1 mm | 35 % cover | 85 % cover | amount of original biocide remaining (OIT) ([8]; 0 h): 100; amount of original biocide remaining (OIT) ([8]; 288 h): 78; amount of original biocide remaining (OIT) ([8]; 432 h): 65; amount of original biocide remaining (OIT) ([8]; 960 h): 50; MIC ([9]; Aureobasidium pullulans, reference microorganism Aureobasidium pollulens): 36 µg/mL (≈ 169 µM); Minimum Inhibition Concentration (MIC) ([9]; reference microorganism Aureobasidium pullulans): 36 mg of active ingredient per liter; amount of original biocide remaining (OIT) ([10]; 0 h): 100; amount of original biocide remaining (OIT) ([10]; 336 h): 17; amount of original biocide remaining (OIT) ([10]; 1008 h): 1; Fungal growth rating % Cover D28 ([6]; biocide 1,200 ppm): 3 % cover; Fungal growth rating % Cover D84 ([6]; biocide 1,200 ppm): 35 % cover; Fungal growth rating % Cover D28 ([6]; biocide 1,400 ppm): 0 % cover; Fungal growth rating % Cover D84 ([6]; biocide 1,400 ppm): 5 % cover; Fungal growth rating % Cover D56 ([7]; biocide 300 ppm): 85 % cover; Fungal growth rating % Cover D56 ([7]; biocide 1,200 ppm): 35 % cover; Fungal growth rating % Cover D56 ([7]; biocide 1,400 ppm): 0 % cover
